Assay results from ChEMBL document CHEMBL1201862, “PubChem BioAssay data set” (2004).
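Five concentrations, 48 hours, 96-well plates. At the GI50, growth is halved.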 The source made the active and inactive calls. Rule as the data show it: active = GI50 up to about 1.1 µM and inactive = higher.

Key:
Test in all cases: growth of human tumour cells (NCI), 48 h
PC-3 = system: PC-3
SF-268 = system: SF-268
MDA-MB-435 = system: MDA-MB-435
UACC-62 = system: UACC-62
ACHN = system: ACHN
SNB-19 = system: SNB-19
RPMI-8226 = system: RPMI-8226
SK-MEL-5 = system: SK-MEL-5
CAKI-1 = system: CAKI-1
MOLT-4 = system: MOLT-4
SR = system: SR
OVCAR-8 = system: OVCAR-8
A498 = system: A498
DU-145 = system: DU-145
Hs-578T = system: Hs-578T
SK-MEL-28 = system: SK-MEL-28
NCI-H23 = system: NCI-H23
HT-29 = system: HT-29
SF-295 = system: SF-295
NCI/ADR-RES = system: NCI/ADR-RES
HCT-15 = system: HCT-15
HOP-92 = system: HOP-92
MDA-MB-231 = system: MDA-MB-231
UACC-257 = system: UACC-257
LOX IMVI = system: LOX IMVI
BT-549 = system: BT-549
RXF 393 = system: RXF 393
CCRF-CEM = system: CCRF-CEM
OVCAR-5 = system: OVCAR-5
HOP-62 = system: HOP-62
KM12 = system: KM12
MDA-N = system: MDA-N
Malme-3M = system: Malme-3M
HL-60 = system: HL-60
SW-620 = system: SW-620
HCC 2998 = system: HCC 2998
A549 = system: A549
UO-31 = system: UO-31
SK-OV-3 = system: SK-OV-3
U-251 = system: U-251
K562 = system: K562
SNB-75 = system: SNB-75
COLO 205 = system: COLO 205
SK-MEL-2 = system: SK-MEL-2
NCI-H226 = system: NCI-H226
IGROV-1 = system: IGROV-1
EKVX = system: EKVX
TK-10 = system: TK-10
NCI-H522 = system: NCI-H522
NCI-H460 = system: NCI-H460
786-0 = system: 786-0
SF-539 = system: SF-539
SN12C = system: SN12C
M14 = system: M14
OVCAR-3 = system: OVCAR-3
T47D = system: T47D
MCF7 = system: MCF7
OVCAR-4 = system: OVCAR-4
HCT-116 = system: HCT-116

`O=C(O)c1ccc(C(=O)O)c(C(=O)Nc2ccc3c(c2)C(=O)c2ccccc2-3)c1` was tested, and the GI50 (PC-3) was > 100 µM (inactive), the GI50 (SF-268) was > 100 µM (inactive) and the GI50 (MDA-MB-435) was > 100 µM (inactive). The GI50 (UACC-62) was > 100 µM (inactive), the GI50 (ACHN) was > 100 µM (inactive) and the GI50 (SNB-19) was > 100 µM (inactive). The GI50 (RPMI-8226) was > 100 µM (inactive), the GI50 (SK-MEL-5) was > 100 µM (inactive) and the GI50 (CAKI-1) was > 100 µM (inactive). For the same compound, the GI50 (MOLT-4) was > 100 µM (inactive), the GI50 (SR) was > 100 µM (inactive) and the GI50 (OVCAR-8) was > 100 µM (inactive). The GI50 (A498) was > 100 µM (inactive), the GI50 (DU-145) was > 100 µM (inactive) and the GI50 (Hs-578T) was > 100 µM (inactive). For the same compound, the GI50 (SK-MEL-28) was > 100 µM (inactive), the GI50 (NCI-H23) was > 100 µM (inactive) and the GI50 (HT-29) was > 100 µM (inactive). For the same compound, the GI50 (SF-295) was > 100 µM (inactive), the GI50 (NCI/ADR-RES) was > 100 µM (inactive) and the GI50 (HCT-15) was greater than 100 µM. For the same compound, the GI50 (HOP-92) was > 100 µM (inactive), the GI50 (MDA-MB-231) was > 100 µM (inactive) and the GI50 (UACC-257) was > 100 µM (inactive). For the same compound, the GI50 (LOX IMVI) was > 100 µM (inactive), the GI50 (BT-549) was > 100 µM (inactive) and the GI50 (RXF 393) was > 100 µM (inactive). For the same compound, the GI50 (CCRF-CEM) was 48 µM (inactive), the GI50 (OVCAR-5) was > 100 µM (inactive) and the GI50 (HOP-62) was > 100 µM (inactive). The GI50 (KM12) was > 100 µM (inactive), the GI50 (MDA-N) was > 100 µM (inactive) and the GI50 (Malme-3M) was > 100 µM (inactive). For the same compound, the GI50 (HL-60) was 55.6 µM (inactive), the GI50 (SW-620) was > 100 µM (inactive) and the GI50 (HCC 2998) was > 100 µM (inactive). The GI50 (A549) was > 100 µM (inactive), the GI50 (UO-31) was > 100 µM (inactive) and the GI50 (SK-OV-3) was > 100 µM (inactive). The GI50 (U-251) was > 100 µM (inactive), the GI50 (K562) was > 100 µM (inactive) and the GI50 (SNB-75) was > 100 µM (inactive). For the same compound, the GI50 (COLO 205) was > 100 µM (inactive), the GI50 (SK-MEL-2) was > 100 µM (inactive) and the GI50 (NCI-H226) was > 100 µM (inactive). For the same compound, the GI50 (IGROV-1) was > 100 µM (inactive), the GI50 (EKVX) was > 100 µM (inactive) and the GI50 (TK-10) was > 100 µM (inactive). For the same compound, the GI50 (NCI-H522) was > 100 µM (inactive), the GI50 (NCI-H460) was > 100 µM (inactive) and the GI50 (786-0) was > 100 µM (inactive). The GI50 (SF-539) was > 100 µM (inactive), the GI50 (SN12C) was > 100 µM (inactive) and the GI50 (M14) was > 100 µM (inactive). For the same compound, the GI50 (OVCAR-3) was > 100 µM (inactive), the GI50 (T47D) was > 100 µM (inactive) and the GI50 (MCF7) was > 100 µM (inactive). The GI50 (OVCAR-4) was > 100 µM (inactive) and the GI50 (HCT-116) was > 100 µM (inactive).
`CCOc1cc(NC(C)=O)ccc1C(=O)NN1C(=O)C(Cl)C1c1ccco1` (stereo not given) was tested, and the GI50 (PC-3) was 17.9 µM (inactive), the GI50 (SF-268) was 16.1 µM (inactive) and the GI50 (MDA-MB-435) was 15 µM (inactive). For the same compound, the GI50 (UACC-62) was 12.6 µM (inactive), the GI50 (ACHN) was 15.7 µM (inactive) and the GI50 (SNB-19) was 17 µM (inactive). For the same compound, the GI50 (RPMI-8226) was 18.3 µM (inactive), the GI50 (SK-MEL-5) was 13.3 µM (inactive) and the GI50 (CAKI-1) was 17.1 µM (inactive). The GI50 (MOLT-4) was 7.01 µM (inactive), the GI50 (SR) was 13.9 µM (inactive) and the GI50 (OVCAR-8) was 43.5 µM (inactive). The GI50 (A498) was 16.4 µM (inactive), the GI50 (DU-145) was 17.3 µM (inactive) and the GI50 (Hs-578T) was 21.8 µM (inactive). For the same compound, the GI50 (SK-MEL-28) was 22.6 µM (inactive), the GI50 (NCI-H23) was 16.6 µM (inactive) and the GI50 (HT-29) was 19.1 µM (inactive). The GI50 (SF-295) was 16 µM (inactive), the GI50 (NCI/ADR-RES) was 33.7 µM (inactive) and the GI50 (HCT-15) was 19.1 µM. The GI50 (HOP-92) was 19.1 µM (inactive), the GI50 (MDA-MB-231) was 16.6 µM (inactive) and the GI50 (UACC-257) was 15.7 µM (inactive). For the same compound, the GI50 (LOX IMVI) was 3.99 µM (inactive), the GI50 (BT-549) was 13.5 µM (inactive) and the GI50 (RXF 393) was 12.3 µM (inactive). For the same compound, the GI50 (CCRF-CEM) was 4.58 µM (inactive), the GI50 (OVCAR-5) was 20.6 µM (inactive) and the GI50 (HOP-62) was 17.9 µM (inactive). The GI50 (KM12) was 18.5 µM (inactive), the GI50 (MDA-N) was 14.4 µM (inactive) and the GI50 (Malme-3M) was 11.7 µM (inactive). The GI50 (HL-60) was 18.4 µM (inactive), the GI50 (SW-620) was 32.3 µM (inactive) and the GI50 (HCC 2998) was 16 µM (inactive). For the same compound, the GI50 (A549) was 18.7 µM (inactive), the GI50 (UO-31) was 2.86 µM (inactive) and the GI50 (SK-OV-3) was 18.3 µM (inactive). For the same compound, the GI50 (K562) was 19.3 µM (inactive), the GI50 (SNB-75) was 13.8 µM (inactive) and the GI50 (COLO 205) was 17.2 µM (inactive). The GI50 (SK-MEL-2) was 18.6 µM (inactive), the GI50 (NCI-H226) was 18.5 µM (inactive) and the GI50 (IGROV-1) was 13.1 µM (inactive). The GI50 (EKVX) was 17.9 µM (inactive), the GI50 (TK-10) was 17.4 µM (inactive) and the GI50 (NCI-H522) was 10.6 µM (inactive). The GI50 (NCI-H460) was 17.3 µM (inactive), the GI50 (786-0) was 16.1 µM (inactive) and the GI50 (SF-539) was 14.9 µM (inactive). The GI50 (SN12C) was 14.5 µM (inactive), the GI50 (M14) was 15.4 µM (inactive) and the GI50 (OVCAR-3) was 16.9 µM (inactive). The GI50 (T47D) was 16.7 µM (inactive), the GI50 (MCF7) was 13.4 µM (inactive) and the GI50 (OVCAR-4) was 14.9 µM (inactive). For the same compound, the GI50 (HCT-116) was 20.7 µM (inactive).
In the case of `O=C1c2c(Br)sc(Br)c2[C@@H](NC(=O)C(F)(F)F)C1Br` (stereo not given in full), the GI50 (PC-3) is reported as 4.3 µM (inactive), the GI50 (SF-268) is reported as 3.71 µM (inactive) and the GI50 (MDA-MB-435) is reported as 2.13 µM (inactive). For the same compound, the GI50 (UACC-62) was 3.66 µM (inactive), the GI50 (ACHN) was 2.5 µM (inactive) and the GI50 (SNB-19) was 13 µM (inactive). For the same compound, the GI50 (RPMI-8226) was 2.33 µM (inactive), the GI50 (SK-MEL-5) was 2.8 µM (inactive) and the GI50 (CAKI-1) was 3.6 µM (inactive). For the same compound, the GI50 (MOLT-4) was 2.2 µM (inactive), the GI50 (SR) was 2.07 µM (inactive) and the GI50 (OVCAR-8) was 2.68 µM (inactive). The GI50 (A498) was 15.3 µM (inactive), the GI50 (DU-145) was 6.71 µM (inactive) and the GI50 (Hs-578T) was 7.94 µM (inactive). For the same compound, the GI50 (SK-MEL-28) was 3.05 µM (inactive), the GI50 (NCI-H23) was 2.53 µM (inactive) and the GI50 (HT-29) was 2.37 µM (inactive). For the same compound, the GI50 (SF-295) was 16.8 µM (inactive), the GI50 (NCI/ADR-RES) was 3.32 µM (inactive) and the GI50 (HCT-15) was 1.83 µM. The GI50 (HOP-92) was 2.3 µM (inactive), the GI50 (MDA-MB-231) was 2.79 µM (inactive) and the GI50 (UACC-257) was 1.51 µM (inactive). The GI50 (LOX IMVI) was 1.57 µM (inactive), the GI50 (BT-549) was 3.03 µM (inactive) and the GI50 (RXF 393) was 2.14 µM (inactive). For the same compound, the GI50 (CCRF-CEM) was 1.88 µM (inactive), the GI50 (OVCAR-5) was 10.7 µM (inactive) and the GI50 (HOP-62) was 12.9 µM (inactive). The GI50 (KM12) was 5.66 µM (inactive), the GI50 (MDA-N) was 2.87 µM (inactive) and the GI50 (Malme-3M) was 2.24 µM (inactive). For the same compound, the GI50 (HL-60) was 0.631 µM (active), the GI50 (SW-620) was 2.7 µM (inactive) and the GI50 (HCC 2998) was 3.1 µM (inactive). For the same compound, the GI50 (A549) was 17.1 µM (inactive), the GI50 (UO-31) was 5.92 µM (inactive) and the GI50 (SK-OV-3) was 18.7 µM (inactive). The GI50 (U-251) was 2.93 µM (inactive), the GI50 (K562) was 1.93 µM (inactive) and the GI50 (SNB-75) was 4.92 µM (inactive). For the same compound, the GI50 (COLO 205) was 2.01 µM (inactive), the GI50 (SK-MEL-2) was 5.82 µM (inactive) and the GI50 (NCI-H226) was 5.53 µM (inactive). For the same compound, the GI50 (IGROV-1) was 2.92 µM (inactive), the GI50 (EKVX) was 3.57 µM (inactive) and the GI50 (TK-10) was 16.8 µM (inactive). For the same compound, the GI50 (NCI-H522) was 2.03 µM (inactive), the GI50 (NCI-H460) was 11.7 µM (inactive) and the GI50 (786-0) was 2.13 µM (inactive). The GI50 (SF-539) was 2.73 µM (inactive), the GI50 (SN12C) was 2.72 µM (inactive) and the GI50 (M14) was 2.34 µM (inactive). For the same compound, the GI50 (OVCAR-3) was 3.32 µM (inactive), the GI50 (T47D) was 4.11 µM (inactive) and the GI50 (MCF7) was 5.71 µM (inactive). The GI50 (OVCAR-4) was 2.31 µM (inactive).
